# Columns and labels:
# human Pgp [1] = molecular target: T1, human Pgp (Homo sapiens, UniProt P08183); assay: Inhibition of Pgp-mediated Rhodamine 123 efflux in L5178 MDR1 cells; conditions: mouse T lymphoma L5178 MDR1 cells
# Pgp = conditions: cited from earlier work
# human Pgp [2] = assay: Inhibition of Pgp-mediated Rhodamine 123 efflux in L5178 MDR1 cells; conditions: mouse T lymphoma L5178 MDR1 cells
# human Pgp [3] = molecular target: T1, human Pgp
# T1 sequence (P08183 whole entry): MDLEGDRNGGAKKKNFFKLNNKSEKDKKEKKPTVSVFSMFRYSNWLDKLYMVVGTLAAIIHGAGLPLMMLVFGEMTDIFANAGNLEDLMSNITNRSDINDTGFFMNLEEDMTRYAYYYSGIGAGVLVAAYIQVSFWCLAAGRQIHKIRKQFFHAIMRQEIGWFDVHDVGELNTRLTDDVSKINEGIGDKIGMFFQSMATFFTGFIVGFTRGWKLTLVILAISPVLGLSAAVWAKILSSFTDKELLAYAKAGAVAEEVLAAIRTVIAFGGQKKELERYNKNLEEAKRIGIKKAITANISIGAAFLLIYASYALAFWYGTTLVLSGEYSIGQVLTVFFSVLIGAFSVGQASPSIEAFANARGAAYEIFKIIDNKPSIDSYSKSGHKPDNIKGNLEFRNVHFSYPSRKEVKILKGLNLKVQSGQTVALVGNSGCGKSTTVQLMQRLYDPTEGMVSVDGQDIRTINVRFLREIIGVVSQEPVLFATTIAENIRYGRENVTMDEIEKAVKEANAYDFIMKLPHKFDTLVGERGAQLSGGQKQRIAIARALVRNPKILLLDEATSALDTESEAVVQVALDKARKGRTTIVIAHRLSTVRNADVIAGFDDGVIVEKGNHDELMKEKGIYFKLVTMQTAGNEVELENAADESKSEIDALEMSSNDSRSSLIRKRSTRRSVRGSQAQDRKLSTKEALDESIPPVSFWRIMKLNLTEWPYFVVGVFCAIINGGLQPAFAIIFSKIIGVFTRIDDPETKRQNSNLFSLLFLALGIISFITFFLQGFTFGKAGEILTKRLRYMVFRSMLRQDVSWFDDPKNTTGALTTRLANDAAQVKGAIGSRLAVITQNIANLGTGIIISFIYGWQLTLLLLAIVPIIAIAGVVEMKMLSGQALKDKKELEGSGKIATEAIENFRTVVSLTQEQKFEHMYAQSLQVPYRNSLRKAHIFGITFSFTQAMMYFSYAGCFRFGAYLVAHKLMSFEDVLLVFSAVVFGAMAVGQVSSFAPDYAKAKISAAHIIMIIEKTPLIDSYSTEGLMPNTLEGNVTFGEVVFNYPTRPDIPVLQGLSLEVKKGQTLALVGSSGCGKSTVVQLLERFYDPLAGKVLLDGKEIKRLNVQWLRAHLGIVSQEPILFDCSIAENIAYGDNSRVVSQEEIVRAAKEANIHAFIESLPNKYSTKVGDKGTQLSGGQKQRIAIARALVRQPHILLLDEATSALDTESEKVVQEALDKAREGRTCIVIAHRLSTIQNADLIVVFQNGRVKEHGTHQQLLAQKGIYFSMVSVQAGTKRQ
Compound,Ability to inhibit Pgp-mediated cell efflux of R123 (in words) (human Pgp [1]),also measured
CN(C)CCC=C1c2ccccc2CCc2ccccc21 [Amitriptyline],,Pgp inhibitor classification (Pgp): inhibitor
CCN(CC)CCCN(c1ccccc1)C1Cc2ccccc2C1 [Aprindine],weak inhibitors,
O=C1CCc2ccc(OCCCCN3CCN(c4cccc(Cl)c4Cl)CC3)cc2N1 [Aripiprazole],,Ability to inhibit Pgp-mediated cell efflux of R123 (in words) (human Pgp [2]): efficacious Pgp inhibitors
CC1(C)S[C@@H]2[C@H](NC(=O)[C@H](C(=O)O)c3ccsc3)C(=O)N2[C@H]1C(=O)O [Ticarcillin],not effective,
"[Na+].[Na+].[Na+].[O]=[V]([O-])([O-])[O-] [Vi, Sodium orthovanadate]",,IC50 (human Pgp [3]): ~700 µM

# Second part, led by results:
Ability to inhibit Pgp-mediated cell efflux of R123 (in words) (human Pgp [1]),Compound,also measured
not effective,C=CCc1ccccc1OCC(O)CNC(C)C (centres unmarked) [Alprenolol],
not effective,CC(C)[C@H]1CC[C@H](C(=O)N[C@H](Cc2ccccc2)C(=O)O)CC1 [Nateglinide],
weak inhibitors,O=C1Cc2cc(CCN3CCN(c4nsc5ccccc45)CC3)c(Cl)cc2N1 [Ziprasidone],
